{"source": "patent US7115650B1", "about": "“Compositions for improving fertility” (Ferring BV, priority 1999, dated 2006)", "format_in_all_cases": "in vivo, rat", "key": {"[1]": {"system": "obese Zucker Diabetic Fatty (ZDF) female rats", "assay": "Estrous cyclicity by observation of vaginal smear in animal model of human infertility", "settings": "oral 10 mg/kg/day, untreated obese females had abnormal cyclicity vs lean", "experimental": "(§1) Obese Zucker Diabetic Fatty males and females as well as fertile lean males and females were put into individual cages and fed with Purina 5008 (6.5% fat). At 6.5 weeks of life, obese rats were randomized into 3 groups: • 1. Control group—obese ZDF rats (n=8) treated with vehicle. • 2. Once-daily treatment group—obese ZDF rats (n=8) given the compound of Example 1B orally once daily (10 mg/kg/day). • 3. Twice-daily treatment group—obese ZDF rats (n=8) given the compound of Example 1B orally twice daily (10 mg/kg/day). Methods\n(§2) Blood and pituitaries of lean and obese rats were collected at the end of the study. Pituitary LH and plasma testosterone concentrations were measured by radioimmunoassay. Estrous cyclicity was evaluated by observation of vaginal smear."}, "[2]": {"system": "obese Zucker Diabetic Fatty (ZDF) rats", "assay": "Pituitary LH content by radioimmunoassay in animal model of human infertility", "settings": "treated obese ZDF rats, oral 10 mg/kg/day, end of study; obese control 8.1±0.6, lean 6.3±0.6; p<0.05 vs control", "experimental": "as §1, §2"}, "[3]": {"system": "obese Zucker Diabetic Fatty (ZDF) male rats", "assay": "Plasma testosterone by radioimmunoassay in animal model of human infertility", "settings": "treated obese ZDF males, oral 10 mg/kg/day, end of study; obese 1145±328, lean 2410±239; NS vs lean", "experimental": "as §1, §2"}}}
{"smiles": "CC(C)(C)[C@H](N)C(=O)N1CCC[C@H]1C#N", "note": "[Example 1B, (2S)-N-((2′S)-2′-amino-3′,3′-dimethylbutanoyl)pyrrolidine-2-carbonitrile]", "values": [{"measurement": "Estrous cyclicity", "setting": "[1]", "value": "normalised estrous cyclicity"}, {"measurement": "Pituitary LH content", "setting": "[2]", "value": "5.2±0.4", "unit": "μg/pituitary"}, {"measurement": "Plasma testosterone level", "setting": "[3]", "value": "2390 ± 759", "unit": "pg/mL"}]}
